≈ marks a conversion by molar mass, not a printed value. Read-outs that look alike come from different tables or passages of the source.
Tests used:
[1] = tested on: CRFK cells; test: Toxicity for CRFK cells (neutral red or MTT assay), FeLV test; assay type: cell-based
Experimental: A. Determination of Toxicity of Samples for CRFK Cells with Neutral Red Assay or MTT Assay
This assay is a modification of a procedure provided in detail by Dr. Ellen Borenfreund from Rockefeller University. Borenfreund, E., and J. A. Puerner (1984) "A Simple Quantitative Procedure Using Monolayer Cultures for Cytotoxicity Assays (HTD/NR-90)," J. Tissue Culture Methods 9:7-9.
b. MTT is diluted in D-MEM maintenance medium at a concentration of 1 mg per ml. For the toxicity test 75 microliters are added to each well of a 96-well plate without removing any medium. The plates are incubated for 6 hours at 37° C. At the end of the incubation period the medium is removed. If the cell layer is adherent, plates are not centrifuged to bring the cells down. CRFK is an adherent cell line, and for the MTT assay, no centrifugation is required. To each well 200 microliters of isopropyl alcohol are added. The formazan crystals are dissolved. After mixing, the plates are read with a plate reader at a wavelength of 570 nm. Toxicity percentages are determined the same as for neutral red.
(§1) Antiviral activity on crude extracts is expressed by percent antiviral activity or by using the minus and plus values stated above. The EC50 of an antiviral drug represents the concentration of drug that results in 50% reduction of the viral cytopathic effect and the IC50 represents the concentration resulting in 50% growth inhibition. These values are determined from graphs constructed from the raw data. The in vitro therapeutic index (TI) is the ratio of IC50 /EC50.

[2] = tested on: feline leukemia virus (FeLV); test: Feline leukemia virus (FeLV) antiviral drug test; assay type: cell-based; details: for EC50: Feline leukemia virus; for TI: in vitro therapeutic index, ratio of IC50/EC50, FeLV; for activity against the feline leukemia virus: result in words, Tables 1 through 3
From the text: Feline leukemia viruses belong to the retrovirus family. Diseases caused by members of this family in cats have clinical manifestations similar to symptoms observed in humans with diseases caused by the human immunodeficiency viruses. Feline leukemia virus was selected as a representative member of the retrovirus family to use as a model for drug testing to search for compounds effective in preventing viral infection and replication. Cell lines were provided by Hansen Veterinary Immunology, and reagents and protocols for the ELISA assay can be purchased from the same company.
as §1

[3] = 50% growth inhibition (toxicity) in HIV assay; assay type: cell-based
Experimental: as §1

[4] = tested on: murine splenocytes; test: Two-way mixed lymphocyte reaction (MLR); assay type: cell-based, mouse (BALB/c and C57BL/6J)
Experimental: The pure compound was tested in the two-way mixed lymphocyte reaction (MLR) and a lymphocyte viability assay (LCV) at 500, 50, 5, and 0.5 μg/ml, using murine splenocytes. Cellular proliferation was measured using incorporation of ^3 H-thymidine. Responses were reported as a percent of the positive MLR or LCV control.
1. Murine splenocyte suspensions were prepared separately from BALB/c and C57BL/6J mice. Spleens were aseptically removed and homogenized in RPMI 1640 tissue culture medium (TCM), supplemented with 10% fetal calf serum, 2% 1-glutamine, 15 mM HEPES, 1% antibiotic-antimycotic solution, and 25 μg/ml gentamycin (GIBCO). The cell concentrations were adjusted to 2.5×10^6 cells/ml. Aliquots of each cell population were removed to separate tubes, and the remaining two cell suspensions combined to one tube.
2. Serial, log10 dilutions of the pure compound were made in absolute ethanol, and 10 μl of each dilution were added to wells of microtiter test plates, and allowed to dry.
3. A volume of 0.2 ml of the combined splenocyte suspensions was added to triplicate test wells. Positive control wells received combined splenocyte suspensions in the absence of the test compounds. Negative control wells consisted of separate (not mixed) splenocyte suspensions cultured in the absence of the test compounds.
4. Plates were incubated in 5% CO2 at 37° C. for 86 hours.
5. A volume of 0.05 ml of ^3 H-thymidine (20 (μCi/ml) was added to each well, and the plates incubated in 5% CO2 at 37° C. for an additional 5 hours.
6. The contents of each well of the microtiter plates were harvested onto glass fiber filter strips, and the resulting filter discs placed in scintillation vials to which 2.0 ml of scintillation fluid was added.
7. The amount of incorporated ^3 H-thymidine was determined by counting the vials in a liquid scintillation counter.
8. Triplicate counts were averaged, and the data reported as a percentage of the positive control.

[5] = tested on: human immunodeficiency virus (HIV); test: HIV (AIDS virus) antiviral assay; assay type: cell-based
Experimental: as §1

[6] = tested on: P388; test: Standard P388 assay (tumor cell growth inhibition); assay type: cell-based
From the text: HB100 has also been tested to determine its activity in inhibiting the growth of tumor cells.

[7] = tested on: mouse coronavirus A59 (MHV-A59); test: Antiviral assay for mouse coronavirus A59 (CPE); assay type: cell-based, mouse hepatitis virus strain MHV-A59; design: key to activity: +++: complete inhibition of CPE and cell fusion; ++: partial inhibition; +: partial inhibition; +/-: partial inhibition; -: no protection
Experimental: (§2) The antiviral assay for A59 is a cytopathic test (CPE). Susceptible cells are infected with the virus at a dose that infects most of the cells and produces CPE. The characteristic CPE observed is the formation of syncytia. Compounds and extracts which inhibit the CPE are referred to as active samples.
(§3) 1. NCTC clone 1469 is a derivative of mouse liver.
1. Mouse hepatitis virus strain MHV-A59 classified as a coronavirus.
1. Dilute drug or extract for test in the appropriate solvent.
2. Add 20 μl per tube or well.
3. Allow the solvent to evaporate under the laminar flow hood.
4. Dilute the MHV-A59 in Dulbecco's phosphate buffered saline with Ca^++ and Mg^++ to the appropriate predetermined dilution for the lot number currently in use.
5. Remove medium from wells of 24 well plate containing NCTC 1469 cells seeded 24 hours earlier.
6. Medium can be removed by pouring the fluid from the plate and blotting it on a sterile towel.
7. Add 200 lambda of diluted virus to each test well. Add PBS to control wells.
8. Incubate cells and virus for 1 hour at 37° C.
9. Pour off supernatant at end of incubation period.
10. To each glass tube add 10 lambda of dimethyl sulfoxide (DMSO). The purpose for the DMSO is to solubilize the drug. If it is known that the drug under test is water soluble, then the DMSO is not necessary. However, in cases of testing unknown compounds, DMSO may be added, but DMSO causes some toxicity. Since differences have been noted with and without DMSO, the preferred technique is to test the sample under both conditions.
11. Add 1 ml of maintenance medium to each glass tube.
12. Pour the contents of the glass tube into the corresponding well of the tissue culture plate.
13. Incubate infected cells at 37° C. and read the following day.
14. At 12 hours, areas of cell fusion are quite apparent and can be detected both visually and microscopically.
15. […]
To assist in visual interpretation of the data, the antiviral activity is scored from a minus to a three plus based on the percentage of inhibition of viral cytopathic effects. […]

[8] = Cytotoxicity scoring in coronavirus A59 assay; assay type: cell-based; details: mouse, nctc 1469 cells, read-out: toxicity
From the text: as §2, §3
100%=complete cell destruction
75%=partial cell destruction
50%=partial cell destruction
25%=partial cell destruction

[9] = FeLV assay, 50% growth inhibition, molar value, read-out: IC50 (in parentheses)

**Q.** With `CC(C)C1(CCC(C)(O)C2C(O)CC3C4CCC5CC(OS(=O)(=O)O)C(OS(=O)(=O)O)CC5(C)C4CCC32C)CC1C` (stereo not drawn) [HB99] as the molecule, how does the IC50 [1] read?
**A.** 350 µg/mL

**Q.** What about the IC50 [1, 9] of the same molecule?
**A.** 514 µM

**Q.** What about the EC50 [2] of the same molecule?
**A.** 20 µg/mL (≈ 31.4 µM)

**Q.** What about the TI [2] of the same molecule?
**A.** 17.5

**Q.** And the “activity against the feline leukemia virus” value [2]?
**A.** showed activity against the feline leukemia virus

**Q.** What about the IC50 [3] of the same molecule?
**A.** 350 µg/mL (≈ 550 µM)

**Q.** What about the activity at 0.05 µg/mL ([4]; Mus musculus, Splenocyte, 0.05 μg/ml, percent of positive control) of the same molecule?
**A.** 126%

**Q.** What about the activity at 5 µg/mL ([4]; Mus musculus, Splenocyte, 5.00 μg/ml, percent of positive control) of the same molecule?
**A.** 98%

**Q.** What about the activity at 50 µg/mL ([4]; Mus musculus, Splenocyte, 50.00 μg/ml, percent of positive control) of the same molecule?
**A.** 19%

**Q.** What about the activity at 500 µg/mL ([4]; Mus musculus, Splenocyte, 500.00 μg/ml, percent of positive control) of the same molecule?
**A.** 0%

**Q.** And the “immunosuppressive activity (MLR <100% and LCV >70%)” value ([4]; at 50 μg/ml and 5 μg/ml, result in words)?
**A.** exhibited immunosuppressive activity

**Q.** What about the TI ([5]; in vitro therapeutic index, ratio of IC50/EC50, HIV) of the same molecule?
**A.** 70

**Q.** What about the “activity against the AIDS virus” value ([5]; result in words) of the same molecule?
**A.** showed activity against the AIDS virus

**Q.** With `CC(CCC1(C(C)C)CC1C)C1C(O)CC2C3CCC4CC(OS(=O)(=O)O)C(OS(=O)(=O)O)CC4(C)C3CCC21CO` (stereo not drawn) [HB100] as the molecule, how does the IC50 [1] read?
**A.** 185 µg/mL

**Q.** And the IC50 [1, 9]?
**A.** 272 µM

**Q.** What about the IC50 ([6]; Mus musculus, standard P388 assay) of the same molecule?
**A.** 0.1 µg/mL (≈ 0.157 µM)

**Q.** What about the “inhibition of growth of tumor cells” value ([6]; result in words) of the same molecule?
**A.** inhibit the growth of tumor cells

**Q.** What about the EC50 [2] of the same molecule?
**A.** 26 µg/mL (≈ 40.8 µM)

**Q.** What about the TI [2] of the same molecule?
**A.** 7.1

**Q.** And the “activity against the feline leukemia virus” value [2]?
**A.** showed activity against the feline leukemia virus

**Q.** Which IC50 [1] does the source give for `CCCC12OC3CC4C5CCC6CC(OS(=O)(=O)O)C(OS(=O)(=O)O)CC6(C)C5CCC4(C)C3C(C)(O1)C(CC1(C(C)C)CC1C)O2` (stereo not drawn) [HB124] here?
**A.** > 50 µg/mL

**Q.** And the IC50 [1, 9]?
**A.** > 68 µM

**Q.** And the EC50 [2]?
**A.** 6.25 µg/mL (≈ 8.87 µM)

**Q.** And the TI [2]?
**A.** > 8

**Q.** What about the “activity against the feline leukemia virus” value [2] of the same molecule?
**A.** showed activity against the feline leukemia virus

**Q.** And the activity ([7]; 2 μg)?
**A.** -

**Q.** And the activity ([7]; 20 μg)?
**A.** ++

**Q.** And the “inhibition of viral growth” value ([7]; 20 μg, result in words)?
**A.** significantly inhibit viral growth

**Q.** What about the cytotoxicity ([8]; 2 μg) of the same molecule?
**A.** 0%

**Q.** What about the cytotoxicity ([8]; 20 μg) of the same molecule?
**A.** 25%

From patent publication US5079239A, “Sterol disulfates and methods of use” (Harbor Branch Oceanographic Institution, Inc., priority 1990, dated 1992)
